This test has as its system S. cerevisiae M11205. The test is classed as cell-based, Saccharomyces cerevisiae.

Consider `OCCCCO` [1,4-butanediol], for which the “Contribution to enhancement at higher sugar concentrations” value was “no distinct contribution for enhancement”, the “Contribution to stimulant properties versus control without addition” value was “not itself a contributor to the stimulant properties”, the “Day 5 % of Theoretical Max. Ethanol Yield” value was found to be 88.8% and the “Effect on fermentation rates” value is listed as “does not create the increased fermentation rates”.

The values above are taken from patent US20210222208A1, “SUGAR-DERIVED STIMULANT FOR ENHANCEMENT OF AEROBIC AND ANAEROBIC FERMENTATION PERFORMANCE” (priority 2018, published 2021).
